In the supplement of paper PMC11208160:

Assay: recombinant UMI read abundance after kanamycin selection (control-corrected) (log10(CPM+1)); higher = more efficient recombination; extreme values may be limits of the assay; sequences stand for … in AGTGCAGAGAAAATCGGCCAGTTTTCTCTGCCTGCAGTCCGCATGCCGTGGGACCCCTTGGGTTCTAACCTGTTGCCTAGATTTATGCAGCGGACTGCCTTTCTCCCAAAGTGATAAACCGG…AGGTTGGTTTCACT; site = the 11-nt donor
Method in brief: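 Values, expressed as log10(CPM+1), derive from recombinant UMI counts converted to CPM, averaged across replicates and scaled by control-derived factors. Plating was with IPTG (0.07 mM) plus kanamycin or unselected, two replicates each. The screen pooled donor and donor-binding-loop pairs for the IS621 bridge recombinase in Escherichia coli.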
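Note: IS621 bridge recombinase in Escherichia coli cells against a fixed T5 target plasmid.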

First: ACGAAGTCATGGACCGGTTTTCCCGGTAATCCGTATTTGCA (site AGGAAGACTTG)
Second: ACGACGGCATGGACCGGTTTTCCCGGTAATCCGTATTTGAA (site ACGACGGCTTT)
The “recombinant UMI read abundance (log10)” value of the first is lower: 0 for the first, 1.59 for the second.

Compared with “ACGAGGTCATGGACCGGTTTTCCCGGTAATCCGTATTTGAC (site ACGAGGTCTGT)”, “ACGCAACCATGGACCGGTTTTCCCGGTAATCCGTATTTGCT (site ACGCAACCTAG)” is lower in “recombinant UMI read abundance (log10)” value: 2.91 for the first, 0 for the second.

First: ACGCCGTCATGGACCGGTTTTCCCGGTAATCCGTATTTGGT (site ACGCCGTCTAC)
Second: ACGCGAACATGGACCGGTTTTCCCGGTAATCCGTATTTGTC (site ACACGAACTGA)
The “recombinant UMI read abundance (log10)” value of the first is lower: 1.61 for the first, 2.62 for the second.

Compared with “ACGCGAACATGGACCGGTTTTCCCGGTAATCCGTATTTGTC (site ACCCGAACTGA)”, “ACGCGAACATGGACCGGTTTTCCCGGTAATCCGTATTTGTC (site ACGCGAACTGA)” is higher in “recombinant UMI read abundance (log10)” value: 0 for the first, 2.38 for the second.

Compared with “ACGCGAACATGGACCGGTTTTCCCGGTAATCCGTATTTGTC (site ACTCGAACTGA)”, “ACGCGTACATGGACCGGTTTTCCCGGTAATCCGTATTTGGA (site ACGCGTACTTC)” is higher in “recombinant UMI read abundance (log10)” value: 0 for the first, 1.12 for the second.

Going from “ACGGAGACATGGACCGGTTTTCCCGGTAATCCGTATTTGCA (site ACGGAGACTTG)” to “ACGGAGACATGGACCGGTTTTCCCGGTAATCCGTATTTGCA (site AGGAAGACTTG)”, the “recombinant UMI read abundance (log10)” value falls from 2.64 to 0.

Compared with “ACGGCCTCATGGACCGGTTTTCCCGGTAATCCGTATTTGGT (site ACGGCCTCTAC)”, “ACGGCGTCATGGACCGGTTTTCCCGGTAATCCGTATTTGTC (site ACGGCGTCTGA)” is higher in “recombinant UMI read abundance (log10)” value: 2.1 for the first, 3.22 for the second.

“ACGGGGCCATGGACCGGTTTTCCCGGTAATCCGTATTTGCA (site ACGGGGCCTTG)” and “ACGGTGCCATGGACCGGTTTTCCCGGTAATCCGTATTTGAA (site ACGGTGCCTTT)” are within 0.2 log units of each other in “recombinant UMI read abundance (log10)” value: 0 for the first, 0.00366 for the second.

Going from “ACGTACACATGGACCGGTTTTCCCGGTAATCCGTATTTGCA (site ACGTACACTTG)” to “ACGTCATCATGGACCGGTTTTCCCGGTAATCCGTATTTGTT (site ACGTCATCTAA)”, the “recombinant UMI read abundance (log10)” value falls from 2.71 to 1.69.

Going from “ACGTCGACATGGACCGGTTTTCCCGGTAATCCGTATTTGTT (site ACGTCGACTAA)” to “ACGTGAGCATGGACCGGTTTTCCCGGTAATCCGTATTTGCC (site ACGTGAGCTGG)”, the “recombinant UMI read abundance (log10)” value rises from 0.654 to 2.7.

First: ACGTGGACATGGACCGGTTTTCCCGGTAATCCGTATTTGTG (site ACGTGGACTCA)
Second: ACGTTAGCATGGACCGGTTTTCCCGGTAATCCGTATTTGAT (site ACGTTAGCTAT)
The “recombinant UMI read abundance (log10)” value of the first is lower: 1.53 for the first, 2.62 for the second.

Compared with “ACTAAACCATGGACCGGTTTTCCCGGTAATCCGTATTTGCG (site ACTAAACCTCG)”, “ACTAAATCATGGACCGGTTTTCCCGGTAATCCGTATTTGGC (site ACTAAATCTGC)” is higher in “recombinant UMI read abundance (log10)” value: 0 for the first, 0.218 for the second.

Going from “ACTAATACATGGACCGGTTTTCCCGGTAATCCGTATTTGGC (site ACTAATACTGC)” to “ACTAATACATGGACCGGTTTTCCCGGTAATCCGTATTTGGC (site CCTAATACTGC)”, the “recombinant UMI read abundance (log10)” value falls from 0.399 to 0.

“ACTAATACATGGACCGGTTTTCCCGGTAATCCGTATTTGGC (site GCTAATACTGC)” and “ACTAATACATGGACCGGTTTTCCCGGTAATCCGTATTTGGC (site TCTAATACTGC)” are within 0.2 log units of each other in “recombinant UMI read abundance (log10)” value: 1.02 for the first, 1.03 for the second.

Compared with “ACTACAACATGGACCGGTTTTCCCGGTAATCCGTATTTGTG (site ACTACAACTCA)”, “ACTACTGCATGGACCGGTTTTCCCGGTAATCCGTATTTGGT (site ACTAATGCTAC)” is lower in “recombinant UMI read abundance (log10)” value: 0.339 for the first, 0.0144 for the second.

Going from “ACTACTGCATGGACCGGTTTTCCCGGTAATCCGTATTTGGT (site ACTACTGCTAC)” to “ACTACTGCATGGACCGGTTTTCCCGGTAATCCGTATTTGGT (site ACTAGTGCTAC)”, the “recombinant UMI read abundance (log10)” value falls from 0.247 to 0.0166.
